Measured values published in US20220296590A1, “STEREOISOMERS OF THE COMPOUND 3-(BENZO[D][1,3]DIOXOL-5-YL)-7-(1-HYDROXYPROPAN-2-YL)-1-(1H-INDOL-3-YL)-6,7-DIHYDRO-3H-OXAZOL[3,4-A]PYRAZINE-5,8-DIONE AND USE THEREOF AS AN ANTITUMOR AGENT AND PHOSPHODIESTERASE ENZYME INHIBITOR” (BIOLAB SANUS FARMACEUTICA LTDA, priority 2019, published 2022).

How the values were obtained:
PDE5A1 enzyme = biological target: T1, PDE5A1 enzyme (Homo sapiens, UniProt O76074); test: In vitro inhibition of human phosphodiesterase enzyme 5 (BPS Bioscience PDE5A1 assay kit, fluorescence polarization); type: biochemical
T1 construct: purchased BPS Bioscience 60350
Experimental: The evaluation of the compound is studied using BPS Bioscience enzyme assay kit (catalogue 60350). The PDE5A1 Assay kit is designed for identification of PDE5A1 inhibitors using fluorescence polarization. The assay is based on the binding of a fluorescent nucleotide monophosphate generated by PDE5A1 enzyme to the binding agent.
In this methodology only two simple steps on a microtiter plate are required for PDE5A1 reactions. First, the fluorescently labeled cGMP is incubated with PDE5A1 for 1 hour. Second, the binding agent is added to the reaction mixture to produce a change in fluorescent polarization that can then be measured using a fluorescence reader equipped for the measurement of fluorescence polarization.
For the assay the storage reagent FAM-Cyclic-3′, 5′-GMP (20 μM) is diluted with PDE assay buffer to achieve the solution with a […] concentration; the PDE5A1 enzyme is thawed and diluted with the PDE buffer obtaining a PDE5A1 solution at 10 pg/mL.
The assay compounds are diluted with DMSO 100% (v/v) at a concentration of 1000 μM and subsequently diluted in a Sodium chloride 0.9% solution to obtain a curve of concentrations of interest for the assay. The compounds are diluted in concentrations of: 10 nM, 30 nM, 50 nM, 100 nM, 300 nM, 500 nM, 1 μM, 3 μM, 5 μM (DMSO 10% v/v).
The study is comprised of groups: (i) substrate control; (ii) positive control (KIT); (iii) samples in several concentrations; (iv) tadalafil (comparative control). Each parameter (group) is triple labeled.
For the 4 groups there is added, to each microplate well, […] of the FAM-Cyclic-3′ reagent, 5′-GMP (200 μM).
To the substrate control group there is added, to each well, […] of vehicle (DMSO 10% v/v) and […] PDE Buffer.
To the positive control group there is added, to each well, […] of vehicle (DMSO 10% v/v).
To the tadalafil group: there is added […] of the solution in the concentrations of interest.
To the test group there is added […] of the sample solution (test compound)
OBSERVATION: the parameters tested are in triplicate.
To begin the reaction, add […] of the PDE5A1 enzyme (diluted as described above) to the microplate wells designated as Positive Control and Samples (test and tadalafil), and incubate the microplate, for 1 hour, at a temperature of 25° C.
After the incubation period, the reaction is interrupted by the addition, in all the wells, of […] of the binding agent solution and the microplate is incubated for 30 minutes, under light stirring, at room temperature. The reading of the microplate is carried out in Polarized Fluorescence (475-495 nm—excitation and 518-538 nm—emission detection) 500 nanoseconds integration time.

[1] = tested on: PC3-human prostate cancer cells; test: Antiproliferative effect in tumor cell culture (CYQuant intracellular DNA, 72 hours), PC3; type: cell-based; conditions: for % Cell Proliferation Inhibition (intracellular DNA) PC-3 (average ± E.P.M.): 72 hours
Experimental: (§1) For the execution of the assay, the compounds are diluted in DMSO 100% (v/v) at a concentration of 1000 μM and subsequently diluted in a Sodium Chloride solution 0.9% to obtain the storage solutions of interest for use in the assays. The final concentration of interest will be directly diluted in the cell culture medium. For the assay there are used the following tumor cell lineages: PC3-human prostate cancer cells; LNCAP-human prostate cancer cells; DU145-human prostate cancer; MNK45-human gastric cancer and RT4-human bladder cancer cells. The tumor cell lineages are maintained in culture according to standard procedures established by the Cell Bank of Rio de Janeiro (lineage place of origin). For the assay, the tumor cells are seeded in the concentration of 10.000 cells per well (final volume of the reaction of […]), the plate is incubated for 8 hours, for the cells to adhere to the wall of the wells. After this period, the plate is divided in groups: • (a) test group: […] of the samples were added (test compound) in the concentrations of interest; • (b) positive control group: […] of culture medium were added (100% of cell proliferation); • (c) negative control group: 200 mL of culture medium and […] of the vehicle used were added to dilute the compounds (without cells—zero proliferation); • (d) control group: […] were added of the vehicle used to dilute the compounds. This group is important to evaluate whether the vehicle used interferes in the cell proliferation. OBSERVATION: the treatment with the concentrations of samples (test compounds) and of the controls are carried out in triplicate. Incubate the plate for 72 hours in a CO2 kiln at 37° C. After the incubation period, add […]/well of the solution with DNA marker from the CYQuant Kit and incubate the plate, for 60 minutes, in a CO2 incubator at 37° C. The fluorescence intensity is determined using a fluorescence microplate reader with 485 nm excitation and 530 nm emission detection. The results obtained were normalized relative to the positive control group (100% proliferation). For the compounds there are prepared the storage solutions in the concentrations of: 100 nM, 1 μM, 3 μM, 5 μM, 10 μM and 30 μM (DMSO 10% v/v). While the final concentrations in the test are of: 10 nM, 100 nM, 300 nM, 500 nM, 1000 nM and 3000 nM (in DMSO 1% v/v).

[2] = tested on: LNCAP-human prostate cancer cells; test: Antiproliferative effect in tumor cell culture (CYQuant intracellular DNA, 72 hours), LNCAP; type: cell-based; conditions: for % Cell Proliferation Inhibition (intracellular DNA) LNCAP (average ± E.P.M.): 72 hours
Experimental: as §1

[3] = tested on: DU145-human prostate cancer; test: Antiproliferative effect in tumor cell culture (CYQuant intracellular DNA, 72 hours), DU145; type: cell-based; conditions: for % Cell Proliferation Inhibition (intracellular DNA) DU145 (average ± E.P.M.): 72 hours
Experimental: as §1

[4] = tested on: MNK45-human gastric cancer; test: Antiproliferative effect in tumor cell culture (CYQuant intracellular DNA, 72 hours), MNK45; type: cell-based
Experimental: as §1

[5] = tested on: RT4-human bladder cancer cells; test: Antiproliferative effect in tumor cell culture (CYQuant intracellular DNA, 72 hours), RT4; type: cell-based; conditions: for % Cell Proliferation Inhibition (intracellular DNA) RT4 (average ± E.P.M.): 72 hours
Experimental: as §1

## CC(CO)N1CC(=O)N2C(=C(c3c[nH]c4ccccc34)OC2c2ccc3c(c2)OCO3)C1=O (mixture of isomers) [BL-380, (R)-3-(benzo[d][1,3]dioxol-5-yl) -7-((R)-1-hydroxypropan-2-yl)-1-(1H-indole-3-yl)-6,7-dihydro-3H-oxazole[3,4-a]pyrazine-5,8-dione with (S)-3-(benzo[d][1,3]dioxol-5-yl)-7-((R)-1-hydroxypropan-2-yl)-1-(1H-indole-3-yl)-6,7-dihydro-3H-oxazole[3,4-a]pyrazine-5,8-dione]
PDE5A1 enzyme; 10 nM
  % of Inhibition (PDE5A1): 0%
PDE5A1 enzyme; 10 nM to 5000 nM tested
  concentration as from which PDE5 inhibition was observed: ≥ 300 nM
PDE5A1 enzyme; 30 nM
  % of Inhibition (PDE5A1): 0%
PDE5A1 enzyme; 50 nM
  % of Inhibition (PDE5A1): 0%
PDE5A1 enzyme; 100 nM
  % of Inhibition (PDE5A1): 0%
PDE5A1 enzyme; 300 nM
  % of Inhibition (PDE5A1): 15 ± 3%
PDE5A1 enzyme; 500 nM, 0.5 µM
  % of Inhibition (PDE5A1): 25 ± 3%
PDE5A1 enzyme; 1000 nM, 1 µM
  % of Inhibition (PDE5A1): 55 ± 4%
PDE5A1 enzyme; 3000 nM, 3 µM
  % of Inhibition (PDE5A1): 65 ± 2%
PDE5A1 enzyme; 5000 nM
  % of Inhibition (PDE5A1): 78 ± 1%
PDE5A1 enzyme; over the concentrations tested
  PDE5 inhibition, result in words: capable of inhibiting the PDE5 in a dose-dependent manner
[1]; 10 nM, 0.01 µM
  % Cell Proliferation Inhibition (intracellular DNA) PC-3 (average ± E.P.M.): 39 ± 6%
[1]; 100 nM, 0.1 µM
  % Cell Proliferation Inhibition (intracellular DNA) PC-3 (average ± E.P.M.): 25 ± 5%
[1]; 300 nM, 0.3 µM
  % Cell Proliferation Inhibition (intracellular DNA) PC-3 (average ± E.P.M.): 28 ± 2%
[1]; 500 nM, 0.5 µM
  % Cell Proliferation Inhibition (intracellular DNA) PC-3 (average ± E.P.M.): 48 ± 6%
[1]; 1000 nM, 1 µM
  % Cell Proliferation Inhibition (intracellular DNA) PC-3 (average ± E.P.M.): 40 ± 3%
[1]; 3000 nM
  % Cell Proliferation Inhibition (intracellular DNA) PC-3 (average ± E.P.M.): 54 ± 4%
[1]; PC3 prostate cancer tumor lineage
  antiproliferative effect, result in words: antiproliferative effect
[2]; 10 nM, 0.01 µM
  % Cell Proliferation Inhibition (intracellular DNA) LNCAP (average ± E.P.M.): 26 ± 10%
[2]; 100 nM, 0.1 µM
  % Cell Proliferation Inhibition (intracellular DNA) LNCAP (average ± E.P.M.): 12 ± 3%
[2]; 300 nM, 0.3 µM
  % Cell Proliferation Inhibition (intracellular DNA) LNCAP (average ± E.P.M.): 29 ± 6%
[2]; 500 nM, 0.5 µM
  % Cell Proliferation Inhibition (intracellular DNA) LNCAP (average ± E.P.M.): 27 ± 2%
[2]; 1000 nM, 1 µM
  % Cell Proliferation Inhibition (intracellular DNA) LNCAP (average ± E.P.M.): 37 ± 2%
[2]; 3000 nM
  % Cell Proliferation Inhibition (intracellular DNA) LNCAP (average ± E.P.M.): 48 ± 6%
[2]; LNCAP prostate cancer tumor lineage
  antiproliferative effect, result in words: antiproliferative effect
[3]; 100 nM, 0.1 µM
  % Cell Proliferation Inhibition (intracellular DNA) DU145 (average ± E.P.M.): 12 ± 4%
[3]; 300 nM, 0.3 µM
  % Cell Proliferation Inhibition (intracellular DNA) DU145 (average ± E.P.M.): 10 ± 5%
[3]; 500 nM, 0.5 µM
  % Cell Proliferation Inhibition (intracellular DNA) DU145 (average ± E.P.M.): 12 ± 2%
[3]; 1000 nM, 1 µM
  % Cell Proliferation Inhibition (intracellular DNA) DU145 (average ± E.P.M.): 10 ± 3%
[3]; 3000 nM, 3 µM
  % Cell Proliferation Inhibition (intracellular DNA) DU145 (average ± E.P.M.): 31 ± 5%
[3]; DU145 prostate cancer tumor lineage
  antiproliferative effect, result in words: antiproliferative effect
[4]; 100 nM, 0.1 µM
  % Cell Proliferation Inhibition (intracellular DNA) MNK45 (average ± E.P.M.): 7 ± 2%
[4]; 300 nM, 0.3 µM
  % Cell Proliferation Inhibition (intracellular DNA) MNK45 (average ± E.P.M.): 0%
[4]; 500 nM, 0.5 µM
  % Cell Proliferation Inhibition (intracellular DNA) MNK45 (average ± E.P.M.): 0%
[4]; 1000 nM, 1 µM
  % Cell Proliferation Inhibition (intracellular DNA) MNK45 (average ± E.P.M.): 0%
[4]; 3000 nM, 3 µM
  % Cell Proliferation Inhibition (intracellular DNA) MNK45 (average ± E.P.M.): 16 ± 5%
[5]; 100 nM, 0.1 µM
  % Cell Proliferation Inhibition (intracellular DNA) RT4 (average ± E.P.M.): 8 ± 6%
[5]; 300 nM, 0.3 µM
  % Cell Proliferation Inhibition (intracellular DNA) RT4 (average ± E.P.M.): 5 ± 5%
[5]; 500 nM, 0.5 µM
  % Cell Proliferation Inhibition (intracellular DNA) RT4 (average ± E.P.M.): 3 ± 5%
[5]; 1000 nM, 1 µM
  % Cell Proliferation Inhibition (intracellular DNA) RT4 (average ± E.P.M.): 3 ± 1%
[5]; 3000 nM, 3 µM
  % Cell Proliferation Inhibition (intracellular DNA) RT4 (average ± E.P.M.): 58 ± 4%
[5]; RT4 bladder cancer tumor lineage
  antiproliferative effect, result in words: antiproliferative effect
